# Measurements as given in US20220313658A1, “YAP Inhibition for Wound Healing” (The Board of Trustees of the Leland Stanford Junior …, priority 2019, published 2022).
# Assays:
# Type in all cases: in vivo, mouse
# [1] = system: dorsal excisional wounds; assay: Tensile strength testing (Instron) of healed wounds
# Protocol: Tensile strength tests for unwounded skin (N=7) and PBS (N=5) or Verteporfin-treated (N=4) wounds in P60 C57BL/6 mice were conducted at POD 30 using an Instron 5565 equipped with a 100 N load cell. Dorsal skin was harvested and cut into 4 mm-by-15 mm strips. Tissue strips were then secured using custom grips with the scar positioned equidistant to each grip edge and preloaded to a force of 0.02 N to remove slack before the length of the tissue was measured using digital calipers; the width and thickness of the strips were also re-measured to confirm accurate dimensions. Finally, the skin was subjected to an extension test to failure, defined by a sharp decrease in stress with increasing strain, at a rate of 1%/s. The wound breaking force, or yield force, was determined at the maximal force before the tissue entered plastic deformation and eventual failure. True strain was calculated as the change in length divided by the original gauge length, and true stress was calculated as the force divided by the original cross-sectional area. The Young's Modulus was calculated by taking a least-squares regression of the slope during the linear, elastic portion of the stress-strain curve (R^2>0.99). […] In order to characterize the physical properties of Verteporfin-treated wounds, tensile testing was performed on unwounded skin and PBS- or Verteporfin-treated wounds after 30 days of healing.
# [2] = system: dorsal excisional wounds; assay: Quantitative analysis of collagen/ECM ultrastructure (Picrosirius Red, machine learning) of healed wounds
# Protocol: For analysis of Picrosirius Red-stained histologic sections, scars and surrounding normal skin from three biologic replicates were randomly imaged at 5 to 10 separate locations each, for a minimum of 20 images per experimental condition. Next, color deconvolution of Picrosirius Red images was performed in ImageJ using the algorithm previously described by Ruifrok et al., (A. C. Ruifrok, D. A. Johnston, Quantification of histochemical staining by color deconvolution. Anal Quant Cytol Histol 23, 291-299 (2001)) wherein each pure stain is characterized by absorbances within three RGB channels (Color 1=[1 0 0], Color 2=[0 1 0], Color 3=[1 1 1]). Ortho-normal transformation of the histology images produced individual images corresponding to each color's individual contribution to the image. Applied to birefringent Picrosirius Red images (green to red color under polarized light depending on packing of fiber bundles), this technique produced deconvoluted red and green images corresponding to mature and immature connective tissue fibers, which were then analyzed independently. Analysis was thus performed purely using extracellular matrix fibers, with no cellular elements included. Noise reduction of deconvoluted fibers was achieved using an adaptive Wiener filter in Matlab 2019a (wiener2 function), which tailors itself to the local image variance within a pre-specified neighborhood (3-by-3 pixels in the current application). The filter preferentially smooths regions with low variance, thereby preserving sharp edges of fibers. Smooth images were then binarized using the im2bw command and processed through erosion and dilation filters with both linear and diamond-shaped structuring elements to select for fiber-shaped objects. Finally, the fiber network was “skeletonized” using the bwmorph command and various parameters of the digitized map (fiber length, width, persistence, alignment, etc.) were measured using the regionprops command. Dimensionality reduction of quantified fiber network properties by […] stochastic neighbor embedding (t-SNE) was achieved using the default tsne (distance metric specified as Euclidian distance) command in Matlab. A Matlab script containing the fiber quantification pipeline is available at the following Github repository: https://github.com/shamikmascharak/Mascharak-et-al-ENF
# To overcome these challenges, a novel machine learning algorithm recently reported to quantitatively assess connective tissue and fibrosis based on standard histology stains was employed. (S. Mascharak et al., Automated machine learning analysis of connective tissue networks in acute and chronic skin fibroses (manuscript submitted). (2019)) Briefly, images of Picrosirius Red-stained tissue were color-deconvoluted to isolate ECM fibers from cell bodies and nuclei. Fiber components were image-processed to reduce noise, then binarized to produce a digital map of thousands of fibers and branchpoints. A panel of individual (e.g., length, width) and group (e.g., packing, alignment) fiber properties was then measured to quantitatively profile ECM features.
# Verteporfin- and control-treated specimens were stained with Picrosirius Red and subjected to this analysis.
# [3] = system: dorsal excisional wounds; assay: Example 2: excisional wound model, hair regrowth after single Verteporfin injection
# Text: Adult mice were used for cutaneous wound healing experiments in accordance with well-established protocols. Briefly, mice were anesthetized (2% isofluorane), their dorsal hair was removed with depilatory cream, and the dorsal skin was prepped with alcohol wipes. Next, two 6 mm full-thickness circular wounds were placed through the panniculus carnosus on the dorsum of each animal at the same level, roughly 6 mm below the ears and 4 mm lateral to the midline. The wounds were then stented open by 12 mm diameter silicone rings secured around the wound perimeter with glue and 8 simple interrupted Ethilon 6-0 sutures (Ethicon). For mice receiving mechanotransduction inhibitor, 30 μL of Verteporfin (1 mg/mL) was injected locally into the wound base; PBS was injected into wounds for vehicle controls. Post-operative analgesia was accomplished with buprenorphine 0.05 mg/kg every four hours for three doses, and then as indicated. Dressings were changed every other day under anesthesia. […]
# [4] = single local injection immediately following wounding
substance,measurement,setting,value
verteporfin,Force-displacement and stress-strain curves,[1]; after 1 month of healing,more closely resembled unwounded skin than scar
same,Tensile strength (wound breaking force and Young's modulus),"[1]; after 30 days of healing, vs unwounded skin",did not significantly differ from that of unwounded skin
same,"Clustering of connective tissue parameters, Verteporfin-treated wounds vs unwounded skin",[2]; 30 days,increasing overlap
same,"Clustering of connective tissue parameters, Verteporfin-treated wounds vs unwounded skin",[2]; 90 days,complete overlap
same,"ECM fiber metrics (fiber length, width, branching, etc.)",[2]; POD 14,comparable to unwounded skin
same,"Clustering of connective tissue parameters, Verteporfin-treated wounds vs unwounded skin",[2]; after 14 days,largely overlapping clusters
same,ECM features,"[2]; four treatments (POD 0, 4, 8 and 12)",diverged from those of unwounded skin
same,Regrowth of dermal appendages,"[3]; POD 90 (FIG. 13, C)",regrowth of hair follicles and other dermal appendages
same,Hair regrowth,[3]; [4],dramatic increase in hair regrowth
same,"Regeneration of new hair follicles (gross, histology, immunohistochemistry)",[3]; [4],Regeneration of new hair follicles in Verteporfin-treated wounds was observed
same,Wound closure,[3]; [4],did not delay wound closure
